The source of these data is patent US20080275023A1, “N-Hydroxyamides Omege-Substituted with Tricyclic Groups as Histone Deacetylase Inhibitors, Their Preparation and Use in Pharmaceutical Formulations” (priority 2005, published 2008).

As usually defined, the IC50 is the concentration at which inhibition is half-maximal.

Test [1] deals with HCT-116 human colon carcinoma cells. In words: Cytotoxic activity on culture of human colon carcinoma cells HCT-116 (Alamar Blue). The format is cell-based. Conditions: HCT-116 cells, 72 hours after addition of compounds, Alamar Blue viability. On the procedure: Evaluation of Cytotoxic Activity on Culture of Human Colon Carcinoma Cells HCT-116
Human colon carcinoma cells HCT-116 were seeded onto 96-well plates in RPMI1640 culture medium with added 10% FBS and 2 mM glutamine. 24 hours after seeding, the compounds at different concentrations are added. All the compounds are diluted in DMSO such that the final concentrations on the cultures is no greater than 0.5%. 72 hours after addition of the compounds, cell viability is measured by means of the dye Alamar Blue. The result is expressed as percent survival of the treated relative to the control, treated with carrier alone.

Test [2] relates to histone deacetylase (HDAC), HeLa nuclear extract. In words: Deacetylase activity on nuclear extract of HeLa cells (Fluor de Lys kit). Particulars: 0.1 μM compound, percent inhibition relative to control without inhibitor. The test is classed as biochemical, human. On the procedure:
The activity of the compounds as histone deacetylase (HDAC) inhibitors was measured using an in vitro acetylation assay. The compounds were then evaluated as inhibitors of proliferation of human tumor cell cultures.
Deacetylase Activity on Nuclear Extract of Hela Cells (Human Cervical Cancer Cell)
The assay (Fluor de Lys™ kit, BioMol) is divided into two steps: in the first step the substrate which comprises an acetylated lysine residue is reacted with the nuclear extract (HeLa) containing the enzymatic activity in the presence and absence of inhibitors. In the second step a fluorogenic reagent is added which highlights the deacetylated residues. A reduction in fluorescence is obtained where there has been inhibition of the deacetylase activity.

Regarding `O=C(CCCCCN1C(=O)c2ccccc2S(=O)(=O)c2ccccc21)NO` [Example 8, 6-(5,5,11-Trioxo-5,11-dihydro-5λ^6-dibenzo[b,f][1,4]thiazepin-10-yl)-hexanoic acid hydroxyamide], in test [1], the IC50 amounted to 105 nM. For the same molecule, the “% inhib at 0.1 μM” value in test [2] is listed as 73%.
`COc1ccc2c(c1)N(CCCCCC(=O)NO)C(=O)c1ccccc1S2(=O)=O` [Example 9, 6-(8-Methoxy-5,5,11-trioxo-5,11-dihydro-5λ^6-dibenzo[b,f][1,4]thiazepin-10-yl)-hexanoic acid hydroxyamide] showed an IC50 in test [1] of 40 nM. Further, the “% inhib at 0.1 μM” value in test [2] amounted to 83%.
Taken in the same sequence, the figures for `O=C(CCCCCN1C(=O)c2ccccc2S(=O)(=O)c2ccc(Cl)cc21)NO` [Example 10, 6-(8-Chloro-5,5,11-trioxo-5,11-dihydro-5λ^6-dibenzo[b,f][1,4]thiazepin-10-yl)-hexanoic acid hydroxyamide] were 30 nM and 77%.
Taken in the same sequence, the figures for `COc1ccc2c(c1)N(CCCCCC(=O)NO)C(=O)c1ccccc1[S+]2[O-]` (stereo not shown) [Example 11, 6-(8-Methoxy-5,11-dioxo-5,11-dihydro-5λ^4-dibenzo[b,f][1,4]thiazepin-10-yl)-hexanoic acid hydroxyamide] were 50 nM and 73%.
For the molecule `O=C(CCCCCN1C(=O)c2ccccc2Oc2ccccc21)NO` [Example 12, 6-(11-Oxo-11H-dibenzo[b,f][1,4]oxazepin-10-yl)-hexanoic acid hydroxyamide], half-maximal inhibition in test [1] (IC50) was put at 640 nM. In addition, the “% inhib at 0.1 μM” value in test [2] turned out to be 66%.
For `COc1ccc2c(c1)N(CCCCCC(=O)NO)C(=O)c1ccccc1O2` [Example 13, 6-(8-Methoxy-11-oxo-11H-dibenzo[b,f][1,4]oxazepin-10-yl)-hexanoic acid hydroxyamide] the same measures were 310 nM and 73%.
For `O=C(CCCCCN1C(=O)c2ccccc2Oc2ccc(Cl)cc21)NO` [Example 14, 6-(8-Chloro-11-oxo-11H-dibenzo[b,f][1,4]oxazepin-10-yl)-hexanoic acid hydroxyamide] the same measures were 200 nM and 65%.
Taken in the same sequence, the figures for `O=C(CCCCCCN1C(=O)c2ccccc2Oc2ccccc21)NO` [Example 15, 7-(11-Oxo-11H-dibenzo[b,f][1,4]oxazepin-10-yl)-heptanoic acid hydroxyamide] were 200 nM and 62%.
Molecule `O=C(CCCCCN1C(=O)c2cscc2Nc2cc(Cl)c(Cl)cc21)NO` [Example 17, 6-(6,7-Dichloro-10-oxo-4H,10H-2-thia-4,9-diaza-benzo[f]azulen-9-yl)-hexanoic acid hydroxyamide] showed an IC50 in test [1] of 800 nM.
Turning to `CN(C)c1ccc2c(c1)S(=O)(=O)N(CCCCCC(=O)NO)c1ccccc1N2` [Example 20, 6-(8-Dimethylamino-10,10-dioxo-5,10-dihydro-10λ^6-thia-5,11-diaza-dibenzo[a,d]cyclohepten-11-yl)-hexanoic acid hydroxyamide], in test [1], the IC50 came to 390 nM. Besides, the “% inhib at 0.1 μM” value in test [2] stood at 40%.
On to `COc1ccc2c(c1)Nc1ccccc1S(=O)(=O)N2CCCCCC(=O)NO` [Example 21, 6-(3-Methoxy-10,10-dioxo-5,10-dihydro-10λ^6-thia-5,11-diaza-dibenzo[a,d]cyclohepten-11-yl)-hexanoic acid hydroxyamide], for which the IC50 in test [1] turned out to be 290 nM.
With `O=C(CCCCCN1c2ccccc2Oc2ccccc2S1(=O)=O)NO` [Example 23, 6-(10,10-Dioxo-10H-5-oxa-10λ^6-thia-11-aza-dibenzo[a,d]cyclohepten-11-yl)-hexanoic acid hydroxyamide], it took 190 nM to reach half-maximal inhibition in test [1] (IC50). Further, the “% inhib at 0.1 μM” value in test [2] is 48%.
For `O=C(CCCCCN1c2cc(F)ccc2Nc2ccccc2S1(=O)=O)NO` [Example 25, 6-(2-Fluoro-10,10-dioxo-5,10-dihydro-10λ^6-thia-5,11-diaza-dibenzo[a,d]cyclohepten-11-yl)-hexanoic acid hydroxyamide] the same measures were 1500 nM and 42%.
`CN(C)c1ccc2c(c1)S(=O)(=O)N(CCCCCC(=O)NO)c1ccc(O)cc1N2` [Example 26, 6-(8-Dimethylamino-3-hydroxy-10,10-dioxo-5,10-dihydro-10λ^6-thia-5,11-diaza-dibenzo[a,d]cyclohepten-11-yl)-hexanoic acid hydroxyamide] gave an IC50 in test [1] of 1000 nM. In test [2], the “% inhib at 0.1 μM” value was determined as 66%.
Taken in the same sequence, the figures for `COc1ccc2c(c1)Nc1ccc(N(C)C)cc1S(=O)(=O)N2CCCCCC(=O)NO` [Example 27, 6-(8-Dimethylamino-3-methoxy-10,10-dioxo-5,10-dihydro-10λ^6-thia-5,11-diaza-dibenzo[a,d]cyclohepten-11-yl)-hexanoic acid hydroxyamide] were 400 nM and 63%.
For `COc1ccc2c(c1)N(CCCCCC(=O)NO)S(=O)(=O)c1ccccc1N2` [Example 29, 6-(2-Methoxy-10,10-dioxo-5,10-dihydro-10λ^6-thia-5,11-diaza-dibenzo[a,d]cyclohepten-11-yl)-hexanoic acid hydroxyamide] the same measures were 900 nM and 54%.
Taken in the same sequence, the figures for `COc1ccc2c(c1)Nc1ccccc1N(CCCCCC(=O)NO)S2(=O)=O` [Example 30, 6-(7-Methoxy-10,10-dioxo-5,10-dihydro-10λ^6-thia-5,11-diaza-dibenzo[a,d]cyclohepten-11-yl)-hexanoic acid hydroxyamide] were 390 nM and 65%.
In test [1], `Nc1cccc2c1Nc1ccccc1S(=O)(=O)N2CCCCCC(=O)NO` [Example 32, 6-(4-Amino-10,10-dioxo-5,10-dihydro-10λ^6-thia-5,11-diaza-dibenzo[a,d]cyclohepten-11-yl)-hexanoic acid hydroxyamide] gave an IC50 of 2000 nM. Moreover, the “% inhib at 0.1 μM” value in test [2] is 47%.
